Test results: US5223507A, “Method of using opioid compounds as delta opioid selective agonist analgesics” (G. D. Searle & Co., priority 1992, dated 1993)
Where a name gives a salt, the structure may show the parent alone. Read-outs that look alike come from different tables or passages of the source.

What was measured:
[1] = molecular target: μ opioid receptors (Rattus norvegicus, UniProt P33535); assay: Opiate Binding Assay, displacement of 3[H]-DAMGO (μ receptor); conditions: for Percent Inhibition, mu: at 100 nm, rat forebrain membranes, 3[H]-DAMGO
[2] = molecular target: δ opioid receptors (Rattus norvegicus, UniProt P33533); assay: Opiate Binding Assay, displacement of 3[H]-DSLET (δ receptor); conditions: for Mean IC50 μ/δ Ratio: ratio of mean IC50 values for μ and δ opioid receptors; for Percent Inhibition, delta: rat forebrain membranes, 3[H]-DSLET
[3] = tested on: mice; assay: Phenylbenzoquinone (PBQ) Writhing Assay; type: in vivo, mouse (Charles River male albino mice); conditions: for ED50: Mus musculus, 0.5 h
Source text: The Writhing Assay is one of the most widely-used experimental procedures for measuring the analgesic activity of different narcotic and nonnarcotic analgesic agents, and involves the continuous, chemically-induced pain of visceral origin to an animal, such as a mouse or rat. [Gyires et al., Arch. int. Pharmacodyn, 267, 131-140 (1984); C. Vander Wende et al., Fed. Proc., 15, 494 (1956); Koster et al., Fed. Proc., 18, 412 (1959); and Witken et al., J. PharmacoI. exp. Tger., 133, 400-408 (1961).] Chemicals which may be used to induce this pain include phenylbenzoquinone (PBQ) and acetic acid. As a result of the chemical irritation to the animal, a characteristic stretching and writhing of the animal (dorsiflexion of the animal's back, extension of its hindlimbs and the strong contraction of its abdominal musculature) will generally occur. […] Drugs which reduce the number of writhes of the animal appear to restore the normal nociceptive threshold of the animal.
Charles River male albino mice, weighing 20 to 30 grams were used in this assay.
Thirty minutes after subcutaneous or intragastric administration to ten mice of either 10 mg or 30 mg per kilogram of body weight of a compound of the present invention ("test compound"), […] of body weight of a 0.025% w/v solution of PBQ was injected intraperitoneally into each mouse. Ten mice which were given saline in place of a test compound of the invention were used as a control group.
Five minutes later, each mouse was individually placed into a glass beaker for observation, and the number of writhes occurring during the following ten-minute period was counted.
A test compound was considered to be "active" in this assay (to have produced analgesia in a mouse) if, after the administration of the compound to the mouse, the number of writhes elicited by a mouse injected with PBQ was equal to, or less than, one-half the median number of writhes recorded for the saline-treated control group of mice that day, as described by Taber in "Predictive Value of Analgesic Assays in Mice and Rats," Advances in Biochemical Psychopharmacology, 8, 191 (1974).
The standard initial screening doses of a test compound employed in this assay were 10 and/or 30 […] for both routes of administration.

[4] = po, intragastric, 30 min before PBQ, read-out: PBQ WRITHING ASSAY ED50 (mpk) I.G.
[5] = sc, subcutaneous, 30 min before PBQ, read-out: PBQ WRITHING ASSAY ED50 (mpk) S.C.
[6] = intragastric, 30 min before PBQ
[7] = subcutaneous, screening doses 10 and/or 30 mpk

Sequence of δ opioid receptors (P33533 whole entry): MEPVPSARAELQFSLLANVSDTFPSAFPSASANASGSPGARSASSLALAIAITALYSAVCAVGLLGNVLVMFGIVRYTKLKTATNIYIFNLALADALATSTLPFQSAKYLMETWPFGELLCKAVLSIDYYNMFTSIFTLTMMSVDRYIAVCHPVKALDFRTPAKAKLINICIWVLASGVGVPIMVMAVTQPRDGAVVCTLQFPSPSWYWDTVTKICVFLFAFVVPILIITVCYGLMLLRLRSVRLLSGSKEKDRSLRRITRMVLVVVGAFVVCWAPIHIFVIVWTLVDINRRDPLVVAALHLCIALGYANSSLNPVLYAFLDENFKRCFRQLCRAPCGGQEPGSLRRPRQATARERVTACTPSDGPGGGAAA
Sequence of μ opioid receptors (P33535 whole entry): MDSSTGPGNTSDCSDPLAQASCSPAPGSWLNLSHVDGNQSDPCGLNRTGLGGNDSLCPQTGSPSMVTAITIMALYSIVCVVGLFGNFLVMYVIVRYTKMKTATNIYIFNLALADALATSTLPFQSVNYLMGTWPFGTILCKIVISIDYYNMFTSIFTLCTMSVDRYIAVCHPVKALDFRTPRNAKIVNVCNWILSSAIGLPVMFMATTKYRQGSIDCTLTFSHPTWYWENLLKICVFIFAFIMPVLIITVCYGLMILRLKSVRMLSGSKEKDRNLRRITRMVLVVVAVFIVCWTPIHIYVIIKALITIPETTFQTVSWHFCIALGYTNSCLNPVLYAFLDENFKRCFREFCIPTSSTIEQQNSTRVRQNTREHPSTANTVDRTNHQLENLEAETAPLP

Structure (SMILES) | IC50 [1] [nM] | IC50 [2] [nM] | Mean IC50 μ/δ Ratio [2] | also measured
CN1CC[C@]23c4c5ccc(O)c4O[C@H]2c2[nH]c4ccccc4c2C[C@@]3(O)[C@H]1C5 [I, 5,6,7,8,14,14bβ-Hexahydro-7-methyl-4,8(R,α)-methano-4bS^* -benzofuro[2,3-a]pyrido[4,3-b]carbazole-1, 8aβ(9H)-diol, monohydrochloride] | 152 | 2.6 | 58 | –
CN1CC[C@]23c4c5ccc(O)c4O[C@H]2c2oc4ccccc4c2C[C@@]3(O)[C@H]1C5 [II, 6,7,8,14bβ-Tetrahydro-7-methyl-4,8(R,α)-methano-4bS^* -5H-bisbenzofuro[3,2-e:2',3'-g]isoquinoline-1, 8aβ(9H)-diol, monohydrochloride] | 93 | 5.4 | 17 | ED50 [3, 4]: 2.4 mg/kg; ED50 [3, 5]: 0.2 mg/kg
CN1CC[C@]23c4c5ccc(O)c4O[C@H]2c2[nH]c4c(ccc6ccccc64)c2C[C@@]3(O)[C@H]1C5 [III, 5,6,7,8,16, 16bβ-Hexahydro-7-methyl-4,8(R, α)-methano-4BS^* -benzo[i]benzofuro [2,3-a]pyrido[4,3-b]carbazole-1,8aβ(9H)-diol, monohydrochloride] | 550 | 20.8 | 26 | PBQ WRITHING ASSAY ED50 (mpk) I.G. [3, 6]: inactive; Number of mice in 10 exhibiting inhibition of writhing, S.C. [3, 7]: 5/10
COc1ccc2c3c1O[C@H]1c4oc5ccccc5c4C[C@@]4(OC)[C@@H](C2)N(C)CC[C@]314 [IV, 2 6,7,8,14bβ-Hexahydro-1,8aβ-(9H)-dimethoxy-7-methyl-4,8(R,α)-methano-4bS^* -5H-bisbenzofuro [3,2-e:2',3'-g]isoquinoline] | 21200 | 43.5 | 446 | ED50 [3, 4]: 2.2 mg/kg; Number of mice in 10 exhibiting inhibition of writhing, S.C. [3, 7]: 6/10
C=CCN1CC[C@]23c4c5ccc(O)c4O[C@H]2c2oc4ccccc4c2C[C@@]3(O)[C@H]1C5 [IX, 6,7,8,14β-Tetrahydro-7-(2-propenyl)-4,8(R,α)-methano-4bS^* -5H-bisbenzofuro[3,2-e:2',3'-g] isoquinoline-1,8aβ(9H)-diol, monohydrochloride] | 236 | 0.21 | 1100 | ED50 [3, 4]: 3.9 mg/kg; ED50 [3, 5]: 2.8 mg/kg
COc1ccc2c3c1O[C@H]1c4oc5ccccc5c4C[C@@]4(O)[C@@H](C2)N(C)CC[C@]314 [V, 6,7,8,14bβ-Tetrahydro-1-methoxy-7-methyl-4,8(R,α)-methano-4bS^* -5H-bisbenzofuro [3,2-e:2',3'-g]isoquinolin-8aβ(9H)-ol] | – | – | – | ED50 [3, 4]: 2.7 mg/kg; PBQ WRITHING ASSAY ED50 (mpk) S.C. ([3]; subcutaneous, 30 min before PBQ): inactive; Percent Inhibition, mu [1]: 2%; Percent Inhibition, delta ([2]; at 100 nm): 72%
CN1CC[C@]23c4c5ccc(O)c4O[C@H]2c2[nH]c4c(Br)cc(Br)cc4c2C[C@@]3(O)[C@H]1C5 [VI, 11,13-Dibromo-5,6,7,8,14,14bβ-hexahydro-7-methyl-4,8(R,α)-methano-4bS^* -benzofuro[2,3-a]pyrido[4,3-b] carbazole-1,8aβ(9H)-diol, monohydrochloride] | – | – | – | PBQ WRITHING ASSAY ED50 (mpk) I.G. [3, 6]: inactive; Number of mice in 10 exhibiting inhibition of writhing, S.C. [3, 7]: 6/10; Percent Inhibition, delta ([2]; 10 nm): 11%
CN1CC[C@]23c4c5ccc(O)c4O[C@H]2c2[nH]c4c(Br)cccc4c2C[C@@]3(O)[C@H]1C5 [VII, 13-Bromo-5,6,7,8,14bβ-hexahydro-7-methyl-4,8(R,α)-methano-4bS^* -benzofuro[2,3-a]pyrido [4,3-b]carbazole-1,8aβ(9H)-diol, monohydrochloride] | 253 | 10 | 25.3 | ED50 [3, 4]: 2.3 mg/kg; ED50 [3, 5]: 0.9 mg/kg
C=CCN1CC[C@]23c4c5ccc(O)c4O[C@H]2c2[nH]c4ccccc4c2C[C@@]3(O)[C@H]1C5 [VIII, 5,6,7,8,14,14bβ-Hexahydro-7(2-propenyl)-4,8 (R,α)-methano-4bS^* -benzofuro[2,3-a]pyrido[4,3-b] carbazole-1,8aβ(9H)-diol, monohydrochloride] | 99 | 1.4 | 71 | –
C=CCN1CC[C@]23c4c5ccc(O)c4O[C@H]2c2[nH]c4c(Br)cccc4c2C[C@@]3(O)[C@H]1C5 [X, 13-Bromo-5,6,7,8,14, 14bβ-hexahydro-7-(2-propenyl)-4,8(R,α)-methano-4bS^* -benzofuro [2,3-a]pyrido[4,3-b]carbazole-1,8aβ(9H)-diol monohydrochloride] | 3900 | 11.1 | 350 | Number of mice in 10 exhibiting inhibition of writhing, I.G. ([3]; intragastric, screening doses 10 and/or 30 mpk): 5/10; Number of mice in 10 exhibiting inhibition of writhing, S.C. [3, 7]: 5/10
CN1CC[C@]23c4c5ccc(O)c4O[C@H]2c2oc4ccccc4c2C[C@H]3[C@H]1C5 [XI, 6,7,8,8a,9,14bβ-Hexahydro-7-methyl-4,8(R,α)-methano-4bs^* -5H-bisbenzofuro[3,2-e:2',3'-g] isoquinolin-1-ol, monohydrochloride] | 24 | 3.5 | 6.9 | ED50 [3, 5]: 2 mg/kg; PBQ WRITHING ASSAY ED50 (mpk) I.G. [3, 6]: inactive
CN1CC[C@]23c4c5ccc(O)c4O[C@H]2c2[nH]c4ccccc4c2C[C@H]3[C@H]1C5 [XII, 5,6,7,8,8a,9,14, 14bβ-Octahydro-7-methyl-4,8(R,α)-methano-4bS^* -benzofuro[2,3-a] pyrido[4,3-b]carbazol-1-ol, monohydrochloride] | 58 | 4.9 | 11.8 | –
CN1CC[C@]23c4c5ccc(O)c4O[C@H]2c2[nH]c4c(Br)cccc4c2C[C@H]3[C@H]1C5 [XIII, 13-Bromo-5,6,7,8,8a,9,14,14bβ-octahydro-7-methyl-4,8(R,α)-methano-4bS^* -benzofuro [2,3-a]pyrido[4,3-b]carbazol-1-ol, monohydrochloride] | 265 | 52 | 5.1 | PBQ WRITHING ASSAY ED50 (mpk) I.G. [3, 6]: inactive; Number of mice in 10 exhibiting inhibition of writhing, S.C. [3, 7]: 4/10
CCCN1CC[C@]23c4c5ccc(O)c4O[C@H]2c2oc4ccccc4c2C[C@@]3(O)[C@H]1C5 [XIV, 6,7,8,14bβ-Tetrahydro-7-propyl-4,8(R,α)-methano-4bS^* -5H-bisbenzofuro[3,2-e:2',3'-g] isoquinoline-1,8aβ(9H)-diol, monohydrochloride] | 200 | 7.7 | 26 | –
CC(=O)O[C@@]12Cc3c([nH]c4ccccc34)[C@@H]3Oc4c(O)ccc5c4[C@@]31CCN(C)[C@@H]2C5 [XIX, 5,6,7,8,14,14bβ-Hexahydro-7-methyl-4,8(R,α-methano-4bS^* -benzofuro[2,3-a]pyrido[4,3-b]carbazole-1,8aβ-9H)-dio1,8a-acetate monohydrochloride] | 769 | 1 | 769 | –
Oc1ccc2c3c1O[C@H]1c4oc5ccccc5c4C[C@@]4(O)[C@@H](C2)N(CC2CCC2)CC[C@]314 [XV, 6,7,8,14bβ-Tetrahydro-7-(cyclobutylmethyl)-4,8 (R,α)-methano-4bS^* -5H-bisbenzofuro [3,2-e:2',3'-g]isoquinoline-1,8aβ(9H)-diol, monohydrochloride] | 690 | 5.1 | 135 | –
CC(=O)Oc1ccc2c3c1O[C@H]1c4[nH]c5ccccc5c4C[C@@]4(O)[C@@H](C2)N(C)CC[C@]314 [XVII, 5,6,7,8,14,14bβ-Hexahydro-7-methyl-4,8 (R,α)-methano-4bS^* -benzofuro[2,3-a] pyrido[4,3-b]carbazole-1,8aβ(9H)-diol, 1-acetate] | 1300 | 34 | 38 | –
CC(=O)Oc1ccc2c3c1O[C@H]1c4[nH]c5ccccc5c4C[C@@]4(OC(C)=O)[C@@H](C2)N(C)CC[C@]314 [XVIII, 5,6,7,8,14,14bβ-Hexahydro-7-methyl-4,8(R,α)-methano-4bS^* -benzofuro[2,3-a] pyrido[4,3-b]carbazole-1,8aβ-9H)-diol, diacetate, monohydrochloride] | – | 66.4 | – | Percent Inhibition, mu [1]: 72%
